Assay results from patent US20230303693A1, “BISPECIFIC ANTIBODY AGAINST CD3 AND CD20 IN COMBINATION THERAPY FOR TREATING DIFFUSE LARGE B-CELL LYMPHOMA” (GENMAB A/S, priority 2022, published 2023).
Like-named read-outs stand apart in the source and are kept apart here.

Key:
T cells [1] = system: T cells
T cells [2] = assay: T cell viability after 16 hours pre-incubation with CHP components; settings: pretreatment of T cells, 16 hours (data not shown)
[3] = system: CD20-expressing Raji-luc tumor cells; settings: NOD-SCID mice injected with Raji-luc tumor cells and PBMCs; even in presence of excess IgG1-RTX-FEAR; cited from earlier work
[4] = system: primary DLBCL and follicular lymphoma patient biopsies; settings: cited from earlier work
[5] = system: relapsed or refractory (R/R) B-NHL, highly refractory large B-cell lymphoma; settings: monotherapy, n=157; cited from earlier work

With `O=P1(N(CCCl)CCCl)NCCCO1` (stereo not drawn) [cyclophosphamide, 2H-1,3,2-Oxazaphosphorin-2-amine, N,N-bis(2-chloroethyl)tetrahydro-, 2-oxide] the T cell viability (T cells [1]) was “did not impact T cell viability”.

For `COc1cccc2c1C(=O)c1c(O)c3c(c(O)c1C2=O)C[C@@](O)(C(=O)CO)C[C@@H]3O[C@H]1C[C@H](N)[C@H](O)[C@H](C)O1` [doxorubicin], the T cell viability (T cells [2]) was “led to a reduction in T cell viability”.

In the case of epcoritamab, the tumor growth [3] is given as “effectively reduce tumor growth”, the T-cell-mediated cytotoxicity ([4]; biopsies taken a certain amount of time after administration of an anti-CD20 antibody) is given as “induced T-cell-mediated cytotoxicity” and the tumor cell kill ([4]; biopsy taken 2 weeks after administering anti-CD20 antibody) is given as “up to 40%”. For the same compound, the “complete response (CR) rate” value [5] was 39%, the “median duration of response (DOR)” value [5] was 12 months and the “overall response rate (ORR)” value [5] was 63%. For the same compound, the safety profile [5] was “manageable safety profile”.
